Assay [1] has as its system MCF-7 cells. Kind of assay: Growth/viability of human mammary carcinoma cells. It counts as cell-based. As to conditions: MCF7, 96 h, 4 days, read-out: growth decrease of MCF-7 cells. The protocol: Human mammary carcinoma cells (MCF-7) were cultured alone (controls) and with arginine butyrate or isobutyramide for 4 days. Viability was assayed by FACS after incubation with a fluorescent dye taken up by viable cells (FIG. 6). Growth was decreased by 50% with isobutyramide at 1.0 mM, about 60% with arginine butyrate at 0.5 mM, and greater than 90% with arginine butyrate at 1.0 mM.

Assay [2] has as its system fetal globin (gamma globin). Kind of assay: Fetal globin expression in erythroid progenitor cells from cord blood. It is filed as cell-based, human. The protocol: Compositions were tested for activity in inducing fetal globin expression and protein production in erythroid progenitor cells cultured from human cord blood and analyzed as described by S. P. Perrine et al. (Blood 74: 454-60, 1989). Briefly, mononuclear cells were cultured in IMDM with 30% fetal calf serum and 2 units erythropoietin per ml to induce erythroid differentiation. Colonies were harvested on day 12-13, incubated with radio-labelled (^3 H) leucine, and further incubated in leucine-free media, still in the presence of compounds, overnight. Globin composition in the erythroid cells was analyzed by laser densitometry of electrophoretically separated globin chains stained with Coomassie blue, and by autoradiography. Treated cells were incubated for 12-13 days (Table 2, Experiments A and B) or overnight (Table 2, Experiment C) in the presence of the indicated compounds and compared to untreated control cells cultured from the same human subject.

Structures are written as SMILES. A value given as a limit tells only on which side of the number the result lay.

The text below walks through data of patent US6011000A, “Compositions for the treatment of blood disorders” (priority 1995, dated 2000).

`CCCC(=O)O` [AB, arginine butyrate]: in assay [1] (0.5 mM), the inhibition at 500 µM is roughly 60%. The inhibition at 1000 µM in assay [1] (1.0 mM) was greater than 90%.

In the case of `O=C(O)COc1ccccc1` [PAA, Phenoxyacetic acid], the “Gamma/(Gamma + Beta)” value in assay [2] (Exp. A, 0.1 mM, 12-13 days, untreated 76.0%) was 82.0%; in assay [2] (Exp. B, 0.5 mM, 12-13 days, untreated 25.4%, 27.5%), 38.8%; in assay [2] (Exp. C, 0.5 mM, overnight, untreated 52.0%), 55.6%.
